Molecules are shown by their SMILES. Where two headings read alike, the source gives them in different places.

For series [1] the following is noted: for form in which the salt was obtained: salt forms prepared by the same process; for Initial purity: before storage.
For series [2], the system named is gout patients. The experiment in a line: Serum uric acid level in gout patients per dose. Particulars: 14 days; for patients whose serum uric acid level fell below <5.0 mg/dL / percentage of patients whose serum uric acid level fell below <5.0 mg/dL: measured 15th day. In kind it is in vivo, human. The protocol: The compound was orally administered at doses of 0.25 mg (N=12), 0.5 mg (N=12), 1 mg (N=12) and 2 mg (N=12) based on the active ingredient (3,5-dibromo-4-hydroxyphenyl)(2,3-dihydro-4H-pyrido[4,3-b][1,4]oxazin-4-yl)-methanone (Formula I), and placebo (N=12), for 14 days. The efficacy and safety of the compound on the serum uric acid (UA) level was evaluated in comparison with the placebo.
Serum uric acid levels were measured on the 15th day after administration, and the percentages of patients whose serum uric acid level fell below <6.0 mg/dL and below <5.0 mg/dL were determined and shown in FIG. 13. […] From the above results, it could be understood that a dose less than 2 mg is not effective in the treatment of diseases such as hyperuricemia and gout.
In addition, for a total of 68 gout patients, (3,5-dibromo-4-hydroxyphenyl)(2,3-dihydro-4H-pyrido[4,3-b][1,4]oxazin-4-yl)-methanone hydrochloride 1.5 hydrate according to the present invention was administered. The compound was orally administered at doses of 3 mg (N=13), 5 mg (N=14), 7 mg (N=15) and 10 mg (N=15) based on the active ingredient (3,5-dibromo-4-hydroxyphenyl)(2,3-dihydro-4H-pyrido[4,3-b][1,4]oxazin-4-yl)-methanone (Formula I), and placebo (N=11), for 14 days. The efficacy and safety of the compound on the serum uric acid level was evaluated in comparison with the placebo.
Serum uric acid levels were measured on the 15th day after administration, and the percentages of patients whose serum uric acid level fell below <6.0 mg/dL and below <5.0 mg/dL were determined and shown in FIG. 14.

The nature of series [3]: Physical stability to processing factors (grinding, granulating, tableting). The format is physicochemical. An excerpt: In addition, the physical stability to processing factors in the preparation of the above 1.5 hydrate and the non-solvate were compared, and the results are shown in Table 2 below.
Series [4] in a line: Solubility test in FeSSIF. Particulars: At 240 minutes; 50 mL FeSSIF (pH 5.0), 37° C., paddle 50 rpm; 10 mg compound + 100 mg lactose. The format is physicochemical. How it is done: The solubility test was carried out using 50 mL of FeSSIF (pH 5.0) as a medium and setting the paddle speed at 50 rpm under the operation condition at 37° C.
Series [5] has as its system gout patients. As to the kind of experiment: Adverse drug reaction per dose in gout patients. The format is in vivo, human. To be noted: oral, 14 days. The protocol:
The compound was orally administered at doses 3 mg (N=14), 5 mg (N=15), 7 mg (N=17) and 10 mg (N=17) based on the active ingredient (3,5-dibromo-4-hydroxyphenyl)(2,3-dihydro-4H-pyrido[4,3-b][1,4]oxazin-4-yl)-methanone (Formula I), and placebo (N=13), for 14 days, and the adverse drug reaction was investigated.

Series [6] concerns gout patients. As to the kind of experiment: Urinary creatinine levels in gout patients. In kind it is in vivo, human. Particulars: 10 mg, oral, 14 days. How it is done: Furthermore, urinary creatinine levels were also measured in the same patients. The number of cases in which creatinine is increased by more than 0.3 mg/dL or more than 1.5 times compared to baseline is shown in Table 4 below.

Where [7] appears, read: 30% v/w solvent, granulated about 2 min, dried at 50° C.

Turning to `O=P(O)(O)O.c1cc2c(cn1)NCCO2`, in series [1], the “form in which the salt was obtained” value is given as “gel form”.

`Cl.c1cc2c(cn1)NCCO2`: in series [1], the “form in which the salt was obtained” value is given as “unstable in a semi-solid form”.

With `c1cc2c(cn1)NCCO2` [Free base], in series [1] (30° C., 65% RH), the “purity, 1 week” value was 97.72%; the “purity, 2 weeks” value worked out at 97.96%; the “purity, 4 weeks” value is on record as 98.18%. In series [1] (40° C., 75% RH), the “purity, 1 week” value is 97.74%; the “purity, 2 weeks” value was 97.91%; the “purity, 4 weeks” value is 98.10%. This compound had an Initial purity in series [1] of 99.36%. For the same compound, the “Note (purity over the stability test)” value in series [1] (both conditions, up to 4 weeks) was greater than 97.5%.

In the case of `O=S(=O)(O)O.c1cc2c(cn1)NCCO2` [Sulfate], in series [1] (30° C., 65% RH), the “purity, 1 week” value was 99.05%; the “purity, 2 weeks” value worked out at 99.85%; the “purity, 4 weeks” value is listed as “melted”. In addition, in series [1] (40° C., 75% RH), the “purity, 1 week” value is listed as “melted”; the “purity, 2 weeks” value is reported as “melted”; the “purity, 4 weeks” value is “melted”. In addition, in series [1], the Initial purity was found to be 98.88% and the “form in which the salt was obtained” value is listed as “solid form”. Besides, in series [1] (both conditions, up to 4 weeks), the “Note (stability verdict)” value is listed as “unstable”. Moreover, the “stability test outcome in words” value in series [1] (stability test for 4 weeks) is on record as “the solid melted again to a liquid”.

Turning to `O=C(c1cc(Br)c(O)c(Br)c1)N1CCOc2ccncc21` [compound of Formula I, (3,5-dibromo-4-hydroxyphenyl)(2,3-dihydro-4H-pyrido[4,3-b][1,4]oxazin-4-yl)-methanone], the “patients whose serum uric acid level fell below <5.0 mg/dL” value in series [2] (0.25 mg oral), in series [2] (0.5 mg oral) and in series [2] (1 mg oral) was “no patient” each time. Moreover, the “percentage of patients whose serum uric acid level fell below <5.0 mg/dL” value in series [2] (2 mg oral) is “about 8%”; in series [2] (3 mg oral), “approximately 23%”; in series [2] (5 mg oral) it was roughly 64%; in series [2] (7 mg oral), roughly 80%; in series [2] (10 mg oral) it was roughly 73%.

As for `Cl.Cl.O.O.O.O=C(c1cc(Br)c(O)c(Br)c1)N1CCOc2ccncc21.O=C(c1cc(Br)c(O)c(Br)c1)N1CCOc2ccncc21` [hydrochloride 1.5 hydrate, (3,5-dibromo-4-hydroxyphenyl)(2,3-dihydro-4H-pyrido[4,3-b][1,4]oxazin-4-yl)-methanone hydrochloride 1.5 hydrate], the “Crystallinity change after Tableting” value in series [3] (2 tons of pressure for 5 sec, 7 mm punches, powder X-ray diffractometer) is listed as “Δ5% (94→89%)”. For the same compound, the “Solid form after Granulating with 1:1 of water and ethanol” value in series [3] (setting [7]) was “Unchanged”. Moreover, the “Solid form after Granulating with water” value in series [3] (setting [7]) is recorded as “Unchanged”. The “solid forms in granulating” value in series [3] (granulating) is listed as “no change”. In addition, in series [3] (ground about 2 min using a mortar, powder X-ray diffractometer), the “Crystallinity change after Grinding” value is reported as “Δ3% (94→91%)”. The solubility result in series [4] was “about 125 μg/mL”. Besides, the “patients whose serum uric acid level fell below <5.0 mg/dL” value in series [2] (0.25 mg oral), in series [2] (0.5 mg oral) and in series [2] (1 mg oral) was “no patient” in each case. Further, the “percentage of patients whose serum uric acid level fell below <5.0 mg/dL” value in series [2] (2 mg oral) was “about 8%”; in series [2] (3 mg oral), “approximately 23%”; in series [2] (5 mg oral), roughly 64%; in series [2] (7 mg oral), roughly 80%; in series [2] (10 mg oral), roughly 73%. The “Patients whose serum uric acid level fell below <6.0 mg/dL” value in series [2] (3 mg, 5 mg, 7 mg and 10 mg, oral) is “appeared in all experimental doses”. The “arthralgia (adverse drug reaction)” value in series [5] (3 mg (N = 14)), in series [5] (5 mg (N = 15)) and in series [5] (7 mg (N = 17)) was 0 throughout. The “joint swelling (adverse drug reaction)” value in series [5] (3 mg (N = 14)), in series [5] (5 mg (N = 15)) and in series [5] (7 mg (N = 17)) was 0 throughout. In addition, the “incidence of adverse events such as arthralgia and joint swelling” value in series [5] (3 mg, 5 mg, 7 mg and 10 mg) is “no or very low incidence”. Besides, the “arthralgia (adverse drug reaction), cases” value in series [5] (10 mg (N = 17)) is “[3 cases]”. The “arthralgia (adverse drug reaction), persons” value in series [5] (10 mg (N = 17)) stood at 2 persons. Also, the “arthralgia (adverse drug reaction), share of persons” value in series [5] (10 mg (N = 17)) is listed as 11.76%. The “joint swelling (adverse drug reaction), cases” value in series [5] (10 mg (N = 17)) was “[1 case]”. Also, the “joint swelling (adverse drug reaction), persons” value in series [5] (10 mg (N = 17)) is on record as 1 person. Also, in series [5] (10 mg (N = 17)), the “joint swelling (adverse drug reaction), share of persons” value came out at 5.88%. Besides, the “Number of cases in which creatinine is increased by more than 0.3 mg/dL or more than 1.5 times compared to baseline” value in series [6] stood at 3.

The record behind these values is patent US12030895B2, “Method for preparing heterocyclic derivative compound, composition containing same compound, and hydrate of same compound” (JW PHARMACEUTICAL CORPORATION, priority 2017, dated 2024).
